Among the data in article PMC6934184, “Selective DNA-PKcs inhibition extends the therapeutic index of localized radiotherapy and chemotherapy” (The Journal of Clinical Investigation, 2019) are inhibition values, retold here.

Each structure is given as a SMILES string.

This test deals with T1, ABL1 Y253F (Homo sapiens, UniProt P00519, Y253F).
T1 construct: purchased Thermo Fisher Scientific (Life Technologies) SelectScreen
Nature of the test: SelectScreen Z'LYTE. It is filed as biochemical. A digest of the protocol: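 SelectScreen broad panel; activity (Z'LYTE, Adapta) plus binding formats. ATP: Km app for CSF1R Z'LYTE; 10 for CAMK1 Adapta. Readout = % per kinase.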

For orientation: inhibition means the percentage by which the read-out fell short of the control. Lower therefore signals a response near the control. As to `CN(C(=O)CN1CCOCC1)c1ccc2sc3c(-c4cccc5c(=O)cc(N6CC7CCC(C6)O7)oc45)cccc3c2c1` [NU5455], the inhibition at 1 µM amounted to 5.9%.
